Source: patent publication US9149543B2, “Methods and models for rapid, widespread delivery of genetic material to the CNS using non-viral, cationic lipid-mediated vectors” (The Trustees of the University of Pennsylvania, priority 2005, dated 2015)

Test: DNA protection assay of DMDK lipoplex against DNase and human CSF (agarose gel)
Type: in vitro ADME
Conditions: lipoplex incubated with DNAses or human CSF in vitro
Method: Naked DNA and DMDK/DNA complexes were incubated at 37° C. for thirty minutes with 1 μl of RQ1 RNase-Free DNase and 10× Reaction Buffer (Promega, Madison, Wis.). One unit of RQ1 RNase-Free DNase (1 unit/μl) is defined as the amount required to completely degrade 1 μg of lambda DNA in 10 minutes at 37° C. in 50 μl of a buffered solution. After 30 minutes of incubation, aliquots were removed and used for transfection or phenol/chloroform extraction.
Incubation and transfection were also carried out in human CSF, obtained under an approved IRB protocol at the University of Pennsylvania, wherein CSF was collected under sterile conditions at the Hospital of the University of Pennsylvania during the normal course of pre-operative spinal anesthetic administration.
An equal volume of phenol/chlororform/isoamyl alcohol was added to the DNA solution. This solution was vortexed for 10 seconds, briefly centrifuged, and the aqueous layer removed and placed in a new tube. 1/10 volume of 3M sodium acetate was added and then vortexed. Next, 2.5 volumes of ice-cold 100% EtOH was added, vortexed and placed in a −70° C. freezer for 15 minutes. The solution was then microcentrifuged for 5 minutes at maximum speed, and the supernatant was removed. 1 ml of 70% EtOH (room temperature) was added, and centrifuged for 5 minutes at maximum speed. The supernatant was removed and the pellet dried. […]

For CCCCCCCCCCCCCCC(=O)C(=O)CCCCCCCCCCCCCC [DMDK, Dimyristyl Diketone], the “protection of plasmid DNA from degradation from DNAses or from human cerebral spinal fluid” value was “effectively protect plasmid DNA from degradation”.
